Source: patent US11773391B2, “Therapeutic and diagnostic target for SARS-CoV-2 and COVID-19” (priority 2020, dated 2023)
“Also recorded” adds a separate entry of the source.

Test system: NCOA7
Assay type: cell-based, human
Settings: ECs, FIGS. 3A-3B

N#CCNC(=O)c1ccc(-c2ccnc(Nc3ccc(N4CCOCC4)cc3)n2)cc1 [momelotinib, Momelotinib]
NCOA7 expression (IL-1β-mediated upregulation of NCOA7): abrogated the IL-1β-mediated upregulation of NCOA7; also recorded: attenuates NCOA7 expression
